# In US20150355179A1, “CDKACT BIOSENSORS-FLUORESCENT POLYPEPTIDE TO PROBE THE ACTIVITY OF CDK/CYCLIN KINASES IN VITRO, IN CELLULO AND IN VIVO” (CENTRE NATIONAL DE LA RECHERCHE SCIENTIFIQUE (CNRS), priority 2012, published 2015):
# Tests used:
# [1] = test system: CDK/Cyclin kinase activity in HeLa cell extracts; test: Fluorescence kinase assay of CDKACTH1 in HeLa cell extracts; type: biochemical; conditions: 20 ug HeLa cell extracts, increasing concentrations of inhibitor
# Experimental: (§1) Fluorescence kinase assays were performed in 96-well plates in a thermostated chamber (Polarstar BMG) at 30° C. in 200 ul phosphate buffer saline, pH 7.2, 150 mM NaCl, in the presence of 5 mM MgCl2, 0.5 mM ATP, except when stated otherwise. The fluorescence of Cy3-labelled CDKACTH1 with recombinant CDK/Cyclin complexes or with cell extracts was monitored over time. Changes in Cy3 fluorescence emission were recorded at 590 nm following excitation at 544 nm. In all experiments, the fluorescence of CDKACTH1-Cy3 alone was substracted from all other values. Data analysis and curve fitting were performed using the GraFit Software (Erathicus Ltd).
# Cell culture media, serum and antibiotics were purchased from Invitrogen. HeLa, HS68, A549, MCF-7 and U2OS cells were cultured in DMEM+Glutamax supplemented with 10% FCS, 1 mM penicillin and 1 mM streptomycin at 37° C. in an atmosphere containing 5% CO2. HT2-19 cells, provided by Dr. A. Porter, were cultured in DMEM+NEAA, antibiotics, sodium pyruvate and glutamine, and supplemented with 10% FCS29. Cell extracts were prepared in TBS lysis buffer containing 50 mM TrisHCl, pH 7.4, 150 mM NaCl, 0.1% NP40, 0.1% Deoxycholate, 2 mM EDTA, 1 mM PMSF, Complete™ protease inhibitors (Roche), and normalized following spectrophometric dosage at 280 nm. Phosphatase inhibitors: 50 mM NaF, 40 mM β-Glycero-phosphate, 1 mM Na3VO4.
# Kinase assays were performed in the same conditions as above. […] As shown in FIG. 4A-C, incubation of 20 ug HeLa cell extracts with CDKACTH1 yielded a very similar profile to that obtained with recombinant CDK/Cyclins, implying that these kinases were indeed phosphorylating the substrate sequence of the biosensor. […] Since phosphorylation events are counterbalanced by phosphatases in mammalian cell extracts, we asked whether the response measured would be further improved if phosphatase activity was blocked.
# [2] = target: T1, CDK4/Cyclin D (Homo sapiens, UniProt P11802); test: Real-time fluorescence kinase assay with recombinant CDK4/Cyclin D; type: biochemical; conditions: 20 uM inhibitor; 75 nM CDK4/CyclinD, 25 nM CDKACTH1-Cy3
# T1 construct: made in house; host or cells: E. coli
# Experimental: as §1
# To address the issue of specificity, we asked whether other kinases could phosphorylate and thereby affect the fluorescence of CDKACTH1. We first examined CDK1/Cyclin B and CDK4/Cyclin D (FIGS. 3A and B).
# [3] = test system: A375 rvluc2 cells; test: A375 xenograft tumour growth in NMRI nude mice; type: in vivo; conditions: Roscovitine IP 50 mg/kg/day for 7 days
# [4] = target: T2, CDK2/Cyclin A (Homo sapiens, UniProt P24941); test: Real-time fluorescence kinase assay with recombinant active CDK2/Cyclin A; type: biochemical
# T2 construct: made in house; host or cells: E. coli
# Experimental: (§2) In order to characterize CDKACT-H1 biosensor in vitro, we first asked whether it could be used to monitor recombinant kinase activity in a real-time assay.
# as §1, §2
# In vitro characterization was performed as described in Example 2. […] Assays were performed at 30° C. for 1600s. Fluorescence emission of Cy5 was measured at 675 nm following excitation at 645 nm on Polarstar™ fluorimeter.
# Assays were performed at 30° C. for 1600s. Fluorescence emission of Cy3 was measured at 590 nm following excitation at 544 nm on Polarstar™ fluorimeter.
# T1 sequence (P11802 whole entry, species assumed): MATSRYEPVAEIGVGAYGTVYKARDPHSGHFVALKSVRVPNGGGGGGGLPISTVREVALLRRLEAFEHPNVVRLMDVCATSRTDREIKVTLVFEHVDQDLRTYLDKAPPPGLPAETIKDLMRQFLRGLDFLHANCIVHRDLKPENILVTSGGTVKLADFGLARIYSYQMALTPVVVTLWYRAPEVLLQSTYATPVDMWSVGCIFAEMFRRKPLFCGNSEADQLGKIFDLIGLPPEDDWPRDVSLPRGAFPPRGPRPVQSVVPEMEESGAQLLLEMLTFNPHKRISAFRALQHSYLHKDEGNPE
# T1 sequence (P24385 whole entry partner, species assumed): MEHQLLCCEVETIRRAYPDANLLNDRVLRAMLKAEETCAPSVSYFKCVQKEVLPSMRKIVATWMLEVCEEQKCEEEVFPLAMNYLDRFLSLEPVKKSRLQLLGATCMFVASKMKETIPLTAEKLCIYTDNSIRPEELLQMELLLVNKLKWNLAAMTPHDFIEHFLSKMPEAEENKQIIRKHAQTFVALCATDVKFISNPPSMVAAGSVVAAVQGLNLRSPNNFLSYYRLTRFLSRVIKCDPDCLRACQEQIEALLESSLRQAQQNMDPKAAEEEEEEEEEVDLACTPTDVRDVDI
molecule,measurement,setting,value
CC(=O)c1c(C)c2cnc(Nc3ccc(N4CCNCC4)cn3)nc2n(C2CCCC2)c1=O [PD-0332991],share of CDKACTH1 phosphorylating activity attributed to the kinases blocked by the inhibitor,[1],partial activity
O=C1NC(=NCc2cccs2)S/C1=C\c1ccc2ncccc2c1 [RO3306],share of CDKACTH1 phosphorylating activity attributed to the kinases blocked by the inhibitor,[1],larger part of activities
CC[C@H](CO)Nc1nc(NCc2ccccc2)c2ncn(C(C)C)c2n1 [roscovitine],effect of inhibitor on the CDKACTH1 fluorescence signal,[2],no effect
same,share of CDKACTH1 phosphorylating activity attributed to the kinases blocked by the inhibitor,[1],larger part of activities
same,size of tumours compared to vehicle,[3]; versus DMSO vehicle,55.6%
same,size of tumours compared to control,[3]; versus non-treated control,53.8%
"CDKACTWWH1: peptide biosensor SEQ ID No 20: Pin1 WW phosphobinding domain, linker SEQ ID No 14, histone H1 substrate domain; synthesized, dye-labelled (KLPPGWEKRMSRSSGRVYYFNHITNASQWERPSGPGAGGTGGLPGGGGCSTPKKAKKL; Cy5 or Cy3 dye label; Polypeptide comprising: the WW domain of PIN1 wherein all Cystein residues are replaced by a Serine residue, a linker and the CDK substrate domain from histone H1)",fluorescence enhancement compared with CDKACTH1,"[4]; 25 nM Cy3-labelled sensors, 25 nM active CDK2/Cyclin A3",greater changes in fluorescence enhancement
same,fluorescence response to CDK2/CyclinA activity,"[4]; 25 nM Cy5-CDKACT-WWH1, 25 nM active CDK2/Cyclin A3, 5 mM ATP, 20 mM MgCl2",significant changes in fluorescence enhancement
